Measured values published in ChEMBL document CHEMBL1132090, “Synthesis of a phostone glycomimetic of the endothelin converting enzyme inhibitor phosphoramidon” (Bioorg Med Chem Lett, 1999).
Calls of active or inactive are those of the source. The rule behind the calls is not given here.

Experiments:
[1] = target: T1, Endothelin-converting enzyme 1 (Homo sapiens, UniProt P42892); experiment: Concentration required to inhibit conversion of […] after deprotection and purification by reverse-phase HPLC; format: functional
T1 sequence (P42892 whole entry): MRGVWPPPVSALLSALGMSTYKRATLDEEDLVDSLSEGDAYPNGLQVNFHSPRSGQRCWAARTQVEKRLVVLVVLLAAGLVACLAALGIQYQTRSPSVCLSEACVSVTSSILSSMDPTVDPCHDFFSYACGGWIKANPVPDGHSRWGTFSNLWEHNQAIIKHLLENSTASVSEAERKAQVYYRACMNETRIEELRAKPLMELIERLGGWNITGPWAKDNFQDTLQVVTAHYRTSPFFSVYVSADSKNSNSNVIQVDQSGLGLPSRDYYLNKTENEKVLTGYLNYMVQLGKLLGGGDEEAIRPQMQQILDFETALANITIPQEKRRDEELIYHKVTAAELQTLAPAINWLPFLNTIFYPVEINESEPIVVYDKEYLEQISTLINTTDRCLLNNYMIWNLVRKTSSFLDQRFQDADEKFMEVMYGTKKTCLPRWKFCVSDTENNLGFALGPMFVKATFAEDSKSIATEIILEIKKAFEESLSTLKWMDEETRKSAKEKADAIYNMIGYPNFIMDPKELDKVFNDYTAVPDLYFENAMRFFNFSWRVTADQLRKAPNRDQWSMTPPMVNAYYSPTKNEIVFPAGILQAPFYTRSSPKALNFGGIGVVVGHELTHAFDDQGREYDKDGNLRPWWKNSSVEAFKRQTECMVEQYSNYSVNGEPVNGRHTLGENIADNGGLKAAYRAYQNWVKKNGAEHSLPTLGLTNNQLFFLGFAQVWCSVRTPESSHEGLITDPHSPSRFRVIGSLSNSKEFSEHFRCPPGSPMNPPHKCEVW

[2] = Inhibitory activity against thermolysin induced by big ET-1 which inhibited hypertensive effect; active; format: functional

Row | SMILES | IC50 [1] | Inhibitory activity [2]
1 | CC(C)C[C@H](NP1(=O)OC(C)C(O)C(O)C1O)C(=O)N[C@@H](Cc1c[nH]c2ccccc12)C(=O)O (some centres not stated) | 5.05 µM | –
2 | CC(C)C[C@H](NP(=O)(O)OC1OC(C)C(O)C(O)C1O)C(=O)N[C@@H](Cc1c[nH]c2ccccc12)C(=O)O (some centres not stated) | – | Active
